Results on five substances are retold here after US7291341B2, “Stresscopins and their uses” (The Board of Trustees of the Leland Stanford Junior …, priority 2000, dated 2007).

Assay [1] concerns the target T1, CRHR2-containing rat cardiac A7r5 cells (Rattus norvegicus, UniProt P47866).
T1 construct: cells constitutively expressing CRH receptors; host or cells: A7r5 (rat)
Description: cAMP production in CRHR2-containing rat cardiac A7r5 cells. The note with it: harvested 16 h after treatment (FIG. 3a). The class given is cell-based. On the procedure:
(§1) FIG. 3. […] Hormonal stimulation of cAMP production by FIG. 3a. CRHR2-containing rat cardiac A7r5 cells, FIG. 3b. CRHR1-containing human retinoblastoma Y79 cells, FIG. 3c. recombinant CRHR2, FIG. 3d. recombinant CRHR2 and, FIG. 3e. recombinant CRHR1. Cells incubated with the test peptide or vehicle were harvested at 16 h after treatment and heated to 95° C. for 5 mm to inactivate phosphodiesterase activity before cAMP measurement. FIG. 3f. […] Data are the mean SEM (N=4). SCP1-0.1, stresscopin 1 (0.1 nM); SCP1, stresscopin 1 (1 nM); SCP1(2-43), truncated stresscopin 1 with the first amino acid deleted; SCP1 (3-43), truncated stresscopin 1 with 2-amino-acid deletion; SCP1 (4-43), truncated stresscopin 1 with 3-amino-acid deletion; SCP1 (5-43), truncated stresscopin 1 with 4-amino-acid deletion; SCP1 (6-43), truncated stresscopin 1 with 5-amino-acid deletion; SCP1-NA-0.1, full-length stresscopin 1 devoid of amidation at the C-terminus (0.1 nM); SCP1-NA, full-length stresscopin 1 devoid of amidation at the C-terminus (1 nM); UCN, urocortin. FIGS. 3g and 3h. […] Data are mean SEM (N=3).
(§2) The receptor cDNA fragments were subcloned into the pcDNA3.1/Zeo vector with a prolactin signal peptide for secretion and triple FLAG/M1 epitope cassette upstream of the multiple cloning site. […] For the estimation of adenylate cyclase activation by stresscopin and related hormones, transfected cells were seeded at a concentration of 100,000 cell/well in 48 well culture plates in DMEM/F12 medium containing 0.1% BSA and 2.5mM IBMX for 16 h. Contents of cAMP in whole cell lysate were determined using a cAMP radioimmunoassay.
In general terms: Cyclic AMP is a second messenger, typically raised through Gs and lowered through Gi signalling.

The next assay has as its target T2, recombinant CRHR1 (Homo sapiens, UniProt P34998).
T2 construct: prolactin signal peptide (N); expressed in transfected cells; host or cells: human 293T cells, pcDNA3.1/Zeo vector
T2 sequence (P34998 24-415): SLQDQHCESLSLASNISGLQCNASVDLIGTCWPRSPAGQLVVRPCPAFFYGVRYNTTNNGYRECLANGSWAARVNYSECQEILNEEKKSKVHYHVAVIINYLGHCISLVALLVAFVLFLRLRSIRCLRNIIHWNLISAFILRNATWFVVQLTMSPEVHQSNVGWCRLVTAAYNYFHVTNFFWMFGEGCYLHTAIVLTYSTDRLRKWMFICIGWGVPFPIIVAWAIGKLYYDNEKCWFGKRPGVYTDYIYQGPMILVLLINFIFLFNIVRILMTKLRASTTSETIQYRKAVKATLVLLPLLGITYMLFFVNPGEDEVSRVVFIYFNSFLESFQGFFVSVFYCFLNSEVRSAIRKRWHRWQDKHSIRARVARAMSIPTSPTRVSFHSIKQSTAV
Description: cAMP production by 293T cells transfected with recombinant CRHR1. Format: cell-based. As to conditions: 293T cells transiently transfected (FIG. 3e).

The next assay concerns recombinant CRHR2. Description: cAMP production by 293T cells transfected with recombinant CRHR2 (two isoforms). The note with it: for cAMP production mediated by recombinant CRHR2: 293T cells transiently transfected, two isoforms of CRHR2 (FIGS. 3c-3d). The class given is cell-based. The protocol: as §1, §2
Sequence of recombinant CRHR2 (Q13324 35-411 limits assumed): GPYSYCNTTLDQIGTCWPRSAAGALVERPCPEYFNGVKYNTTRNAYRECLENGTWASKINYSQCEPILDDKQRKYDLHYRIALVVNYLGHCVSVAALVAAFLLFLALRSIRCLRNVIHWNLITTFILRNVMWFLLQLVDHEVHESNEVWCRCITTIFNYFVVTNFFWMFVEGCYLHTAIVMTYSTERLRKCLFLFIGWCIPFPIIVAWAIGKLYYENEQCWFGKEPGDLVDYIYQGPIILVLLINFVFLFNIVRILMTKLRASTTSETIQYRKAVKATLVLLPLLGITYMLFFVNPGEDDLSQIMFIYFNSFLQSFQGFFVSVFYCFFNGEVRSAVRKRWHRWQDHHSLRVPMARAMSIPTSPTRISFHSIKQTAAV
Assay [2] relates to ACTH release in intact male rats. The experiment in a line: ACTH secretion in vivo. Further details: species or system rat. The note with it: i.p. 2 nmoles/kg, 30 min, FIG. 4b. On the procedure:
(§3) FIG. 4. […] ACTH contents in culture media and serum were determined using a radioimmunoassay. For in vivo studies, male rats were injected i.p. with test peptides (2 nmoles/kg B.W.) and sacrificed 30 mm later. Data are mean SEM (N=4). FIG. 4c. Anti-edema response regulated by stresscopins. Stresscopin 1 (20 nmoles/kg), stresscopin 2 (100 nmoles/kg), and related hormones (20 nmoles/kg) suppress heat-induced paw edema formation in anaesthetized rats (N=6). FIG. 4d. Cumulative food intake in mice treated with stresscopin 1 (left panel, N=6) and stresscopin 2 (right panel, N=4) peptides and other hormones at 2, 4, and 8 h after treatment. FIG. 4e. Reduction of gastric emptying by stresscopin 1 (blank bars, 8 nmoles/kg; hatched bars, 80 nmoles/kg), stresscopin 2 (blank bars, 80 nmoles/kg; hatched bars, 200 nmoles/kg), and related hormones (blank bars, 8 nmoles/kg; hatched bars, 80 nmoles/kg) at 2 h after hormone treatment (N=6). The rates of gastric emptying were calculated by the formula (wet weight of stomach at 2 h after treatment/wet weight of stomach in fed animals sacrificed at 0 h). SCP1 is stresscopin 1; SCP2 is stresscopin 2; UCN is urocortin; SCP1 (11-43) is truncated stresscopin 1 with the first 10 amino acids deleted.
(§4) In Vivo and in Vitro assay of pituitary ACTH releasing activity. Anterior pituitaries were obtained from 6-week-old male Sprague-Dawley rats. […]

Assay [3] deals with T3, CRHR1-containing human retinoblastoma Y79 cells (Homo sapiens, UniProt P34998).
T3 construct: cells constitutively expressing CRH receptors; host or cells: Y79 (human retinoblastoma)
T3 sequence (P34998 24-415): T2 sequence (P34998 24-415)
Description: cAMP production in CRHR1-containing human retinoblastoma Y79 cells. Format: cell-based. As to conditions: harvested 16 h after treatment (FIG. 3b).
Description: (§5) CRHR1-containing human retinoblastoma Y79 cells, FIG. 3c. recombinant CRHR2, FIG. 3d. recombinant CRHR2 and, FIG. 3e. recombinant CRHR1. Cells incubated with the test peptide or vehicle were harvested at 16 h after treatment and heated to 95° C. for 5 mm to inactivate phosphodiesterase activity before cAMP measurement. […] Data are the mean SEM (N=4). SCP1-0.1, stresscopin 1 (0.1 nM); SCP1, stresscopin 1 (1 nM); SCP1(2-43), truncated stresscopin 1 with the first amino acid deleted; SCP1 (3-43), truncated stresscopin 1 with 2-amino-acid deletion; SCP1 (4-43), truncated stresscopin 1 with 3-amino-acid deletion; SCP1 (5-43), truncated stresscopin 1 with 4-amino-acid deletion; SCP1 (6-43), truncated stresscopin 1 with 5-amino-acid deletion; SCP1-NA-0.1, full-length stresscopin 1 devoid of amidation at the C-terminus (0.1 nM); SCP1-NA, full-length stresscopin 1 devoid of amidation at the C-terminus (1 nM); UCN, urocortin. […] Data are mean SEM (N=3).

Assay [4] relates to cultured rat anterior pituitary cells. Description: ACTH release by cultured anterior pituitary cells in vitro. The class given is cell-based. As to conditions: hormones 1 nM, 2 h at 37° C., FIG. 4a. The protocol:
as §3, §4

The next assay concerns fasting mice. The experiment in a line: Food intake and body weight in food-restricted mice. The class given is in vivo. As to conditions: for cumulative food intake: i.p., fasting mice, 2, 4 and 8 h after treatment, FIG. 4d; for Average body weight change/mouse / Average food intake/mouse: fasted animals, 2 h after treatment, N = 5. The protocol:
as §3
Food intake and body weight in food-restricted mice. Six week-old male mice (20-25 g b.w.) of the inbreed Balb/C strain were housed individually in a regulated environment with 12L/12D light cycle. Before feeding tests, mice were deprived of food for 16 h with free access to water and injected with testing reagents i.p. at 10 AM the following day. Food intake was measured by placing preweighed pellets in the cage and weighing the uneaten pellets at 2, 4 and 8 h after injection. Body weight was also monitored at 0, 2, 4, and 8 h.

The test system of assay [5] is gastric emptying in food-restricted mice. Description: Gastric emptying in food-restricted mice. The class given is in vivo. The note with it: i.p., 2 h after hormone treatment, FIG. 4e. On the procedure: as §3
Effects on gastric emptying in food-restricted mice. To study the effects on gastric emptying, mice were deprived of food for 16 h with free access to water. The fasted mice were then given free access to preweighed pellets for 90 min. and were injected i.p. with different hormones or saline. The mice were deprived of food again after i.p. injection and sacrificed by cervical dislocation at 2 h. after injection. The stomach was excised at point of the pylorus and cardia before determination of its wet weight. Gastric emptying was calculated by comparison with stomach weight of control mice sacrificed at 0 h. following injection. See, Asakawa, A. et al. (1999) Gastroenterology 116:1287-1292.

The test system of assay [6] is heat-induced paw edema in anaesthetized rats. Description: Heat-induced paw edema formation in anaesthetized rats. Format: in vivo, rat. As to conditions: i.p., FIG. 4c. The protocol:
as §3
Effects on heat-induced paw edema formation in anaesthetized rats. The anti-inflammatory effect of stresscopin and related peptides were assayed using an established model (Turnbull et al. (1996) Euro. J. Pharmacol. 303:213-216). Briefly, 5-week-old male Sprague-Dawley rats were injected with […] of the testing peptide and anaesthetized with ketamine (100 mg/Kg). Thirty min. later, paw edema was induced following a one minute exposure to hot water at 58° C. The animals were sacrificed 30 min later. Both paws were removed at the ankle joint and weighed. The degree of edema was estimated as the differences in weight gain between the heated and unheated paw divided by the weight of the unheated paw.

In a further assay the test system is CRH R2. The experiment in a line: Receptor binding assay, displacement of 125I-urocortin. The note with it: 293T cells transfected with CRHR2 isoforms (FIGS. 3g, 3h). On the procedure: as §1
Receptor Binding assay. […] After 60 min incubation at 37° C., the cell-associated ligand was estimated following centrifugation and repeated washing. Radioactivity of samples was determined in a GENESYS-counter (Laboratory Technologies, Inc., Maple Park, Ill.).
On the technique in general: In a radioligand displacement assay an active substance lowers the binding of a labelled ligand.

Ends that are not written are not given here. Where only a bound is given, the exact number is not on record here.

T1 sequence (P47866 1-431 isoform P47866-2): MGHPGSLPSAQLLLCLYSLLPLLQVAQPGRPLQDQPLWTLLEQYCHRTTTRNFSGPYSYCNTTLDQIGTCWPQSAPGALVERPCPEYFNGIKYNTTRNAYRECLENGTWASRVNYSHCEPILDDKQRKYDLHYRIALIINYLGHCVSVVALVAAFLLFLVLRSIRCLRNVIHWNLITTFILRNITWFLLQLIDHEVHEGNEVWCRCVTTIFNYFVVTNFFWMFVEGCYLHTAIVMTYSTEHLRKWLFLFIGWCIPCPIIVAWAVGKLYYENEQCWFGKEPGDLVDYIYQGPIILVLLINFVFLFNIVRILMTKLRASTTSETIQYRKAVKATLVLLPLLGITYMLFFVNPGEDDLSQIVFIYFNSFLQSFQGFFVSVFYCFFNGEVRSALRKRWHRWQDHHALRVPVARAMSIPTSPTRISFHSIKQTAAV
Description for recombinant CRHR1: as §5

Turning to “urocortin: 40 amino acid peptide, ligand for the CRH receptors; purchased from Sigma Biochemicals (DNPSLSIDLTFHLLRTLLELARTQSQRERAEQNRIIFDSV; ends and bridges not checked; UniProt P55089 83-122, looked up) [reference compound]”, the cAMP production result in assay [1] and in [3] was “stimulated cAMP production” each time. Also, in the assay with recombinant CRHR1, the “cAMP production mediated by recombinant CRHR1” value is given as “stimulated cAMP production”. Further, the “cAMP production mediated by recombinant CRHR2” value in the assay with recombinant CRHR2 is “stimulated cAMP production”. For the same substance, the “ACTH release in vivo” value in [2] was “stimulated the release of ACTH”. In addition, the “ACTH release in vitro” value in [4] is recorded as “stimulated the release of ACTH”. In the assay with fasting mice, the cumulative food intake entry was “dose-dependently decreased food intake”. Also, the gastric emptying activity entry in assay [5] is reported as “suppressed gastric emptying activity”. Moreover, the heat-induced edema formation result in assay [6] (20 nmoles/kg) was “suppressed heat-induced edema formation”.

As for “SCP1-NA: full-length stresscopin 1 devoid of amidation at the C-terminus (HPGSRIVLSLDVILGLLQILLEQARARAAREQATTNARILARV-OH)”, the “reduction in ability to stimulate cAMP production” value in the assay on recombinant CRHR2 (compared to amidated stresscopin 1) is recorded as more than 50 fold.

Consider “stresscopin 1: mature 43 amino acid peptide, SEQ ID NO:3, derived from a 112 amino acid precursor; selective CRH-R2 ligand (HPGSRIVLSLDVILGLLQILLEQARARAAREQATTNARILARV; listed as Homo sapiens)”, for which the “ability to bind CRHR2 (displacement of labeled urocortin)” value with CRH R2 is given as “bind”. In addition, the cAMP production result in assay [1] is listed as “stimulated cAMP production”. Also, in the assay with recombinant CRHR2, the “cAMP production mediated by recombinant CRHR2” value is on record as “potent agonists”. Besides, the “higher potency as compared to stresscopin 2 and the pufferfish peptide” value in the assay with recombinant CRHR2 (activation of type-2 CRH receptors, cAMP) is more than 10 fold. The cAMP production result in assay [3] is reported as “ineffective”. Also, in the assay on fasting mice (20 nM), the “Average body weight change/mouse” value stood at 0.31 ± 0.14 grams and the Average food intake/mouse was 0.185 grams. Further, the cumulative food intake entry in the assay with fasting mice is listed as “dose-dependently decreased food intake”. In addition, the gastric emptying activity entry in [5] is “suppressed gastric emptying activity”. The heat-induced edema formation result in assay [6] (20 nmoles/kg) is listed as “suppressed heat-induced edema formation”.

As to “CRH: corticotropin releasing hormone, 41-amino acid peptide; purchased from Sigma Biochemicals [reference compound]”, the cAMP production result in assay [1] is listed as “stimulated cAMP production”. The “cAMP production mediated by recombinant CRHR2” value in the assay on recombinant CRHR2 was “stimulated cAMP production”. Also, the “ACTH release in vivo” value in [2] is reported as “stimulated the release of ACTH”. In addition, in assay [4], the “ACTH release in vitro” value is listed as “stimulated the release of ACTH”. In addition, in the assay on fasting mice, the cumulative food intake result is “dose-dependently decreased food intake”. The gastric emptying activity entry in assay [5] is listed as “suppressed gastric emptying activity”. Further, the heat-induced edema formation entry in assay [6] (20 nmoles/kg) was “suppressed heat-induced edema formation”.

As to “stresscopin 2: mature peptide of 40 amino acids, SEQ ID NO:6, derived from a 161 amino acid precursor protein (TKFTLSLDVPTNIMNLLFNIAKAKNLRAQAAANAHLMAQI; listed as Homo sapiens)”, the “ability to bind CRHR2 (displacement of labeled urocortin)” value in the assay on CRH R2 is “bind”. Besides, in the assay with recombinant CRHR2, the “cAMP production mediated by recombinant CRHR2” value is listed as “potent agonists”. Further, in the assay on fasting mice (2 nM), the “Average body weight change/mouse” value is recorded as −0.19 ± 0.24 grams and the Average food intake/mouse is given as 0.176 grams. For the same substance, in the assay on fasting mice (20 nM), the “Average body weight change/mouse” value is 0.11 ± 0.1 grams and the Average food intake/mouse is given as 0.152 grams. In the assay with fasting mice, the cumulative food intake result is recorded as “dose-dependently decreased food intake”. For the same substance, the gastric emptying activity entry in assay [5] is recorded as “suppressed gastric emptying activity”. Also, the heat-induced edema formation entry in assay [6] (100 nmoles/kg) is given as “suppressed heat-induced edema formation”.
